US20150344540A1, “NOVEL GLP-1 RECEPTOR AGONISTS WITH CHOLESTEROL EFFLUX ACTIVITY” (NOVO NORDISK A/S, priority 2012, published 2015)
Where two headings read alike, the source gives them in different places. Where a SMILES comes first, the peptide text is derived from it. [ ]: non-standard residue; d: D form. Aib = CC(C)(N)C(=O)O

Assays:
[1] = target: human GLP-1 receptor (Homo sapiens, UniProt P43220); experiment: Functional GLP-1 receptor assay, in vitro potency (CRE luciferase; whole cells); type: cell-based
Sequence of human GLP-1 receptor (P43220 24-463): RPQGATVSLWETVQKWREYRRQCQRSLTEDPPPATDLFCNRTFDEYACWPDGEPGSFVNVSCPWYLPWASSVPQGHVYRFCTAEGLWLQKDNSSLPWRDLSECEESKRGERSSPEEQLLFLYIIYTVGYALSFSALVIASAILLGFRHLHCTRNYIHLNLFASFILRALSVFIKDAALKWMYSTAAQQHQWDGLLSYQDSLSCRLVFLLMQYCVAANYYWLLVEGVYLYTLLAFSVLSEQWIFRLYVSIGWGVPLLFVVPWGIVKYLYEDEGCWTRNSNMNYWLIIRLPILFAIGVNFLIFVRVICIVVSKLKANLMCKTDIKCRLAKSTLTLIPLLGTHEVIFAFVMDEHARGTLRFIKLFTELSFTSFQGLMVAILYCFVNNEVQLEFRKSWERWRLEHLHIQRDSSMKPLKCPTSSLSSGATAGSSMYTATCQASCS

[2] = system: Mouse monocyte/macrophage cell line, RAW 264.7; experiment: Cholesterol efflux assay (3H-cholesterol, macrophage cell line); type: cell-based; conditions: RAW 264.7, 4 hrs incubation, 0.1% human serum albumin; for 4 h Cholesterol Efflux Emax: ABCA1-mediated efflux
[3] = GLP1R CRE luc 1% HSA EC50 Mean Value, BHK cells expressing human GLP-1 receptor, 1% HSA
[4] = BHK cells expressing human GLP-1 receptor, 0% HSA, read-out: GLP1R CRE luc 0% HSA EC50 Mean Value

Compound | EC50 [1, 3] [nM] | EC50 [1, 4] [nM] | 4 h Cholesterol Efflux Emax [2] [%] | EC50 ([1]; GLP1R CRE luc 1% HSA EC50 Mean Value) [nM] | EC50 ([2]; read-out: 4 h Cholesterol Efflux EC50, ABCA1-mediated efflux (CPT-cAMP induced minus non-induced)) [nM]
CC(C)C[C@H](NC(=O)[C@H](Cc1ccccc1)NC(=O)[C@H](CCC(=O)O)NC(=O)[C@H](CCCCN)NC(=O)C(C)(C)NC(=O)[C@H](CCCCN)NC(=O)[C@H](CCC(=O)O)NC(=O)[C@@H](NC(=O)[C@H](CC(C)C)NC(=O)[C@H](Cc1c[nH]c2ccccc12)NC(=O)[C@H](CCC(N)=O)NC(=O)[C@@H](NC(=O)[C@H](Cc1ccccc1)NC(=O)[C@H](CCC(=O)O)NC(=O)[C@H](CCCCN)NC(=O)[C@@H](NC(=O)[C@H](C)NC(=O)[C@H](CCC(=O)O)NC(=O)CNC(=O)[C@H](CCC(=O)O)NC(=O)[C@H](CC(C)C)NC(=O)[C@H](Cc1ccc(O)cc1)NC(=O)[C@H](CO)NC(=O)[C@H](CO)NC(=O)[C@@H](NC(=O)[C@H](CC(=O)O)NC(=O)[C@H](CO)NC(=O)[C@@H](NC(=O)[C@H](Cc1ccccc1)NC(=O)[C@@H](NC(=O)CNC(=O)[C@H](CCC(=O)O)NC(=O)C(C)(C)NC(=O)[C@@H](N)Cc1c[nH]cn1)[C@@H](C)O)[C@@H](C)O)C(C)C)C(C)C)C(C)C)C(C)C)C(N)=O [Compound 65, [Aib8,Glu23,Val25,Val29,Gln30,Glu34,Lys35,Aib36,Lys37]-GLP-1-(7-37)-peptidyl-Glu-Phe-Leu amide] (H-H[Aib]EGTFTSDVSSYLEGEAVKEFVQWLVEK[Aib]KEFL-NH2; N-terminus assumed) | – | – | 96 | 0.037 | 410
CC(C)C[C@H](NC(=O)[C@H](Cc1ccccc1)NC(=O)[C@H](CCC(=O)O)NC(=O)[C@H](CCCCN)NC(=O)C(C)(C)NC(=O)[C@H](CCCCN)NC(=O)[C@H](CCC(=O)O)NC(=O)[C@H](CC(C)C)NC(=O)[C@H](CC(C)C)NC(=O)[C@H](Cc1c[nH]c2ccccc12)NC(=O)[C@H](CCC(N)=O)NC(=O)[C@@H](NC(=O)[C@H](Cc1ccccc1)NC(=O)[C@H](CCC(=O)O)NC(=O)[C@H](CCCNC(=N)N)NC(=O)[C@H](C)NC(=O)[C@H](C)NC(=O)[C@H](CCCCN)NC(=O)CNC(=O)[C@H](CC(=O)O)NC(=O)[C@H](CC(C)C)NC(=O)[C@H](Cc1ccc(O)cc1)NC(=O)[C@H](CCCCN)NC(=O)[C@H](CO)NC(=O)[C@H](Cc1ccc(O)cc1)NC(=O)[C@H](CC(=O)O)NC(=O)[C@H](CO)NC(=O)[C@@H](NC(=O)[C@H](Cc1ccccc1)NC(=O)[C@@H](NC(=O)CNC(=O)[C@H](CCC(N)=O)NC(=O)C(C)(C)NC(=O)[C@@H](N)Cc1c[nH]cn1)[C@@H](C)O)[C@@H](C)O)C(C)C)C(N)=O [Compound 24] (H-H[Aib]QGTFTSDYSKYLDGKAAREFVQWLLEK[Aib]KEFL-NH2) | 0.908 | 1.63 | 82 | – | –
CC[C@H](C)[C@H](NC(=O)[C@H](Cc1ccccc1)NC(=O)[C@H](CCC(=O)O)NC(=O)[C@H](CCCNC(=N)N)NC(=O)[C@@H](NC(=O)[C@H](C)NC(=O)[C@H](CCC(=O)O)NC(=O)[C@H](CCC(=O)O)NC(=O)[C@H](CCC(=O)O)NC(=O)[C@H](CCSC)NC(=O)[C@H](CCC(N)=O)NC(=O)[C@H](CCCCN)NC(=O)[C@H](CO)NC(=O)[C@H](CC(C)C)NC(=O)[C@H](CC(=O)O)NC(=O)[C@H](CO)NC(=O)[C@@H](NC(=O)[C@H](Cc1ccccc1)NC(=O)[C@@H](NC(=O)CNC(=O)[C@H](CCC(=O)O)NC(=O)C(C)(C)NC(=O)[C@@H](N)Cc1c[nH]cn1)[C@@H](C)O)[C@@H](C)O)C(C)C)C(=O)N[C@@H](CCC(=O)O)C(=O)N[C@@H](Cc1c[nH]c2ccccc12)C(=O)N[C@@H](CC(C)C)C(=O)N[C@@H](CCCCN)C(=O)N[C@@H](CC(N)=O)C(=O)N[C@@H](CCCCN)C(=O)NC(C)(C)C(=O)N1CCC[C@H]1C(=O)N[C@@H](CCC(=O)O)C(=O)N[C@@H](Cc1ccccc1)C(=O)N[C@@H](CC(C)C)C(=O)N[C@@H](CCC(=O)O)C(=O)N[C@@H](CC(C)C)C(=O)N[C@@H](CC(C)C)C(N)=O [Compound 35, [Aib2,Glu21,Lys29,Aib30,Glu32,Phe33,Leu34,Glu35,Leu36,Leu371-Exendin-4-(1-37)-peptide amide] (H-H[Aib]EGTFTSDLSKQMEEEAVREFIEWLKNK[Aib]PEFLELL-NH2; N-terminus assumed) | 0.032 | – | 48 | – | –

Continued, in another order:

EC50 [1, 3] [nM] | EC50 [1, 4] [nM] | Compound | 4 h Cholesterol Efflux Emax [2] [%] | EC50 ([1]; GLP1R CRE luc 1% HSA EC50 Mean Value) [nM] | EC50 ([2]; read-out: 4 h Cholesterol Efflux EC50, ABCA1-mediated efflux (CPT-cAMP induced minus non-induced)) [nM]
0.012 | – | CC[C@H](C)[C@H](NC(=O)[C@H](Cc1ccccc1)NC(=O)[C@H](CCC(=O)O)NC(=O)[C@H](CCCNC(=N)N)NC(=O)[C@@H](NC(=O)[C@H](C)NC(=O)[C@H](CCC(=O)O)NC(=O)[C@H](CCC(=O)O)NC(=O)[C@H](CCC(=O)O)NC(=O)[C@H](CCSC)NC(=O)[C@H](CCC(N)=O)NC(=O)[C@H](CCCCN)NC(=O)[C@H](CO)NC(=O)[C@H](CC(C)C)NC(=O)[C@H](CC(=O)O)NC(=O)[C@H](CO)NC(=O)[C@@H](NC(=O)[C@H](Cc1ccccc1)NC(=O)[C@@H](NC(=O)CNC(=O)[C@H](CCC(=O)O)NC(=O)C(C)(C)NC(=O)[C@@H](N)Cc1c[nH]cn1)[C@@H](C)O)[C@@H](C)O)C(C)C)C(=O)N[C@@H](CCC(=O)O)C(=O)N[C@@H](Cc1c[nH]c2ccccc12)C(=O)N[C@@H](CC(C)C)C(=O)N[C@@H](CCCCN)C(=O)N[C@@H](CC(N)=O)C(=O)N[C@@H](CCCCN)C(=O)NC(C)(C)C(=O)N[C@@H](CC(C)C)C(=O)N[C@@H](CCC(=O)O)C(=O)N[C@@H](Cc1ccccc1)C(=O)NCC(=O)N[C@@H](CCC(=O)O)C(=O)N[C@@H](CC(C)C)C(=O)N[C@@H](CC(C)C)C(N)=O [Compound 38, [Aib2,Glu21,Lys29,Aib30,Leu31,Glu32,Phe33,Glu35,Leu36,Leu371-Exendin-4-(1-37)-peptide amide] (H-H[Aib]EGTFTSDLSKQMEEEAVREFIEWLKNK[Aib]LEFGELL-NH2; N-terminus assumed) | 82 | – | –
0.011 | 0.023 | CC[C@H](C)[C@H](NC(=O)[C@H](Cc1ccccc1)NC(=O)[C@H](CCC(=O)O)NC(=O)[C@H](CCCNC(=N)N)NC(=O)[C@@H](NC(=O)[C@H](C)NC(=O)[C@H](CCC(=O)O)NC(=O)[C@H](CCC(=O)O)NC(=O)[C@H](CCC(=O)O)NC(=O)[C@H](CCSC)NC(=O)[C@H](CCC(N)=O)NC(=O)[C@H](CCCCN)NC(=O)[C@H](CO)NC(=O)[C@H](CC(C)C)NC(=O)[C@H](CC(=O)O)NC(=O)[C@H](CO)NC(=O)[C@@H](NC(=O)[C@H](Cc1ccccc1)NC(=O)[C@@H](NC(=O)CNC(=O)[C@H](CCC(=O)O)NC(=O)C(C)(C)NC(=O)[C@@H](N)Cc1c[nH]cn1)[C@@H](C)O)[C@@H](C)O)C(C)C)C(=O)N[C@@H](CCC(=O)O)C(=O)N[C@@H](Cc1c[nH]c2ccccc12)C(=O)N[C@@H](CC(C)C)C(=O)N[C@@H](CCCCN)C(=O)N[C@@H](CC(N)=O)C(=O)N[C@@H](CCCCN)C(=O)NC(C)(C)C(=O)N[C@@H](CC(C)C)C(=O)N[C@@H](CCC(=O)O)C(=O)N[C@@H](CO)C(=O)N[C@@H](CC(C)C)C(=O)N[C@@H](CCC(=O)O)C(=O)N[C@@H](CC(C)C)C(=O)N[C@@H](CC(C)C)C(N)=O [Compound 37, [Aib2,Glu21,Lys29,Aib30,Leu31,Glu32,Leu34,Glu35,Leu36,Leu371-Exendin-4-(1-37)-peptide amide] (H-H[Aib]EGTFTSDLSKQMEEEAVREFIEWLKNK[Aib]LESLELL-NH2; N-terminus assumed) | 102 | – | –
0.014 | 0.039 | H-HAEGTFTSDVSSYLEGEAVREFIAWLVHRVREFLEK-OH [Compound 139] | 104 | – | –
0.076 | – | H-HGEGTFTSDVSSYLEEEAVKEFIAWLVEKVKEKL-NH2 [Compound 111, [Gly8,Glu22,Glu23,Val25,Glu34,Lys35,Val36,Lys37]-GLP-1-(7-37)-peptidyl-Glu-Lys-Leu amide] | 117 | – | –
